Values quoted from earlier work in patent publication US20080114028A1, “Process for preparing polymorphic forms of solifenacin succinate” (priority 2006, published 2008).

Settings: at room temperature in water, glacial acetic acid, dimethylsulfoxide, and methanol

O=C(O[C@H]1CN2CCC1CC2)N1CCc2ccccc2[C@@H]1c1ccccc1 [Solifenacin succinate, solifenacin succinate]
solubility: freely soluble
